# Values of other authors, collected in patent publication US20070190117A1 (priority 2003, published 2007).
# Conditions: galanthamine as hydrobromide or another pharmacologically acceptable salt
smiles,measurement,value
"COc1ccc2c3c1O[C@H]1C[C@@H](O)C=C[C@@]31CCN(C)C2 [galanthamine, 4a,5,9,11,12-hexahydro-3-methoxy-11-methyl[6H]-benzofuro-[3a,3,2ef][2]benzazepine-6-ol]",half life in plasma,approx. 5 h
